Patent publication US20250353873A1, “COMPOUNDS AND METHODS FOR MODULATING APOE EXPRESSION” (Ionis Pharmaceuticals, Inc., priority 2024, published 2025)
Strand notation (5' to 3'): a small letter for the sugar, then the base; units joined by * are phosphorothioate-linked, units joined directly phosphodiester-linked; [ ] holds rarer units or linkages, { } end groups; capitals alone tell only the bases. [ms] = mesyl phosphoramidate linkage; k = constrained ethyl (cEt); [5mC] = 5-methylcytosine; d = 2'-deoxy (DNA)

Experiments:
[1] = tested on: human APOE RNA; assay: Activity in APOE C57BL/6NTac-Apoeem7250 knock-in mice, single ICV bolus, 20 weeks (Example 13); format: in vivo; conditions: single ICV bolus 300 μg, 20 weeks post treatment, normalized to mouse Ppia
Summary of the method: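 Knock-in mice (n=4) given a single ICV bolus of 300 μg oligonucleotide, PBS as control. After 20 weeks, human APOE RNA in cortex and spinal cord measured by RT-qPCR, normalized to mouse Ppia, expressed as % of PBS-treated animals.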

[2] = tested on: human APOE RNA; assay: Dose-dependent reduction of human APOE RNA in HepG2 cells, electroporation, 20,000 cells per well, average of GAPDH- and PPIA-normalized results (Example 4, Table 12); format: cell-based; conditions: HepG2, 20,000 cells per well; for IC50: approximately 24 hours
Method: HepG2 cells plated at a density of 20,000 cells per well were treated by electroporation with various concentrations of modified oligonucleotide as specified in the tables below. […] APOE RNA levels were measured using the human primer probe set RTS3073 (described herein above). APOE RNA levels were normalized to human GAPDH, and human PPIA. Human GAPDH was amplified using human primer probe set RTS104 (described herein above). Human PPIA was amplified using human primer probe set mk_cycloA_2nd (described herein above) The average of the GAPDH-normalized results and the PPIA-normalized results are presented in the table below as percent APOE RNA, relative to the amount of APOE RNA in untreated control cells (% UTC). The half maximal inhibitory concentration (IC50) of each modified oligonucleotide was calculated in GraphPad Prism 10 (GraphPad Software, San Diego, CA) and is also presented in the table below.

[3] = tested on: human APOE RNA; assay: Activity in APOE C57BL/6NTac-Apoeem7250 knock-in mice, single ICV bolus, 8 weeks (Example 11); format: in vivo; conditions: for APOE RNA (% control) Cortex / APOE RNA (% control) Spinal Cord: single ICV bolus 300 μg, 8 weeks post treatment, normalized to mouse Ppia
Summary of the method: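 Human APOE knock-in C57BL/6NTac mice given one ICV bolus of 300 μg oligonucleotide; PBS-dosed group as control. At 8 weeks, cortex and spinal cord RNA measured by qRT-PCR (human probe RTS3073), normalized to mouse Ppia, expressed as % of PBS control.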

[4] = tested on: human APOE RNA; assay: Dose-dependent inhibition of human APOE RNA in differentiated SH-SY5Y cells, free uptake, 5 days (Example 5); format: cell-based
Summary of the method: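 Differentiated SH-SY5Y cells (10,000/well) treated by free uptake with graded oligonucleotide concentrations for 5 days. APOE RNA quantified with primer probe set RTS3073, normalized to PPIA, expressed as % untreated control; IC50 calculated.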

[5] = tested on: human APOE RNA; assay: Activity in APOE C57BL/6NTac-Apoeem7250 knock-in mice, single ICV bolus, 16 weeks (Example 12); format: in vivo; conditions: single ICV bolus 300 μg, 16 weeks post treatment, normalized to mouse Ppia
Summary of the method: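 Knock-in mice (3-4 per group) received one ICV bolus of 300 μg oligonucleotide, PBS as control. After 16 weeks, human APOE RNA in cortex and spinal cord measured by RT-qPCR, normalized to mouse Ppia, and reported as % of PBS control.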

[6] = tested on: human APOE RNA; assay: Activity in APOE C57BL/6NTac-Apoeem7250 knock-in mice, single ICV bolus, 4 weeks (Example 10); format: in vivo; conditions: single ICV bolus 300 μg, 4 weeks post treatment, normalized to mouse Ppia
Summary of the method: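 Knock-in mice (2–4 per group) received one 300 μg ICV bolus of oligonucleotide or PBS. After four weeks, human APOE RNA in cortex and spinal cord measured by RT-qPCR (primer probe set RTS3073), normalized to mouse Ppia, expressed as % of PBS controls.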

^mCksTksTksGdzGdzTdzGdzAdzAdzTds^mCdsTdsTdsTdsAdsTdsTksAksAdzAk (antisense k[5mC]*kT*kT*dG[ms]dG[ms]dT[ms]dG[ms]dA[ms]dA[ms]dT*d[5mC]*dT*dT*dT*dA*dT*kT*kA*dA[ms]kA) [Compound No. 1785602]
APOE RNA (% control) Cortex [1]: 53 % control | APOE RNA (% control) Spinal Cord [1]: 28 % control | APOE RNA (% UTC) ([2]; 5 nM): 97 % UTC | APOE RNA (% UTC) ([2]; 13 nM): 91 % UTC | APOE RNA (% UTC) ([2]; 33 nM): 85 % UTC | APOE RNA (% UTC) ([2]; 82 nM): 70 % UTC | APOE RNA (% UTC) ([2]; 205 nM): 56 % UTC | APOE RNA (% UTC) ([2]; 512 nM): 36 % UTC | APOE RNA (% UTC) ([2]; 1,280 nM): 33 % UTC | APOE RNA (% UTC) ([2]; 3,200 nM): 8 % UTC | APOE RNA (% UTC) ([2]; 8,000 nM): 21 % UTC | APOE RNA (% UTC) ([2]; 20,000 nM): 3 % UTC | IC50 [2]: 300 nM | reduction of human APOE RNA in the cortex ([3]; APOE knock-in mouse model, 8 weeks post administration, assay of Example 11): 73% | APOE RNA (% control) Cortex [3]: 27 % control | APOE RNA (% control) Spinal Cord [3]: 26 % control | APOE RNA (% UTC) ([4]; 5 nM, 5 days (Table 13)): 74 % UTC | APOE RNA (% UTC) ([4]; 5 nM, 5 days (Table 14)): 84 % UTC | APOE RNA (% UTC) ([4]; 13 nM, 5 days (Table 13)): 60 % UTC | APOE RNA (% UTC) ([4]; 13 nM, 5 days (Table 14)): 106 % UTC | APOE RNA (% UTC) ([4]; 33 nM, 5 days (Table 13)): 64 % UTC | APOE RNA (% UTC) ([4]; 33 nM, 5 days (Table 14)): 83 % UTC | APOE RNA (% UTC) ([4]; 82 nM, 5 days (Table 13)): 49 % UTC | APOE RNA (% UTC) ([4]; 82 nM, 5 days (Table 14)): 69 % UTC | APOE RNA (% UTC) ([4]; 205 nM, 5 days (Table 13)): 40 % UTC | APOE RNA (% UTC) ([4]; 205 nM, 5 days (Table 14)): 42 % UTC | APOE RNA (% UTC) ([4]; 512 nM, 5 days (Table 13)): 30 % UTC | APOE RNA (% UTC) ([4]; 512 nM, 5 days (Table 14)): 32 % UTC | APOE RNA (% UTC) ([4]; 1,280 nM, 5 days (Table 13)): 36 % UTC | APOE RNA (% UTC) ([4]; 1,280 nM, 5 days (Table 14)): 26 % UTC | APOE RNA (% UTC) ([4]; 3,200 nM, 5 days (Table 13)): 32 % UTC | APOE RNA (% UTC) ([4]; 3,200 nM, 5 days (Table 14)): 19 % UTC | APOE RNA (% UTC) ([4]; 8,000 nM, 5 days (Table 13)): 15 % UTC | APOE RNA (% UTC) ([4]; 8,000 nM, 5 days (Table 14)): 10 % UTC | APOE RNA (% UTC) ([4]; 20,000 nM, 5 days (Table 13)): 6 % UTC | APOE RNA (% UTC) ([4]; 20,000 nM, 5 days (Table 14)): 8 % UTC | IC50 ([4]; 5 days (Table 13)): 90 nM | IC50 ([4]; 5 days (Table 14)): 230 nM | APOE RNA (% control) Cortex [5]: 38 % control | APOE RNA (% control) Spinal Cord [5]: 20 % control | APOE RNA (% control) Cortex [6]: 34 % control | APOE RNA (% control) Spinal Cord [6]: 33 % control

1785617: modified oligonucleotide complementary to human APOE RNA (k[5mC]*dT[ms]dT[ms]kG*dG[ms]kT*dG[ms]dA[ms]dA[ms]dT[ms]d[5mC]*dT*dT*dT*dA*dT*kT*kA*dA[ms]kA; antisense) [compound 1785617]
APOE RNA (% control) Cortex [1]: 61 % control | APOE RNA (% control) Spinal Cord [1]: 38 % control | APOE RNA (% UTC) ([2]; 5 nM): 95 % UTC | APOE RNA (% UTC) ([2]; 13 nM): 93 % UTC | APOE RNA (% UTC) ([2]; 33 nM): 82 % UTC | APOE RNA (% UTC) ([2]; 82 nM): 68 % UTC | APOE RNA (% UTC) ([2]; 205 nM): 55 % UTC | APOE RNA (% UTC) ([2]; 512 nM): 32 % UTC | APOE RNA (% UTC) ([2]; 1,280 nM): 23 % UTC | APOE RNA (% UTC) ([2]; 3,200 nM): 16 % UTC | APOE RNA (% UTC) ([2]; 8,000 nM): 20 % UTC | APOE RNA (% UTC) ([2]; 20,000 nM): 6 % UTC | IC50 [2]: 260 nM | APOE RNA (% control) Cortex [3]: 30 % control | APOE RNA (% control) Spinal Cord [3]: 213 % control | APOE RNA (% UTC) ([4]; 5 nM, 5 days (Table 14)): 118 % UTC | APOE RNA (% UTC) ([4]; 13 nM, 5 days (Table 14)): 116 % UTC | APOE RNA (% UTC) ([4]; 33 nM, 5 days (Table 14)): 84 % UTC | APOE RNA (% UTC) ([4]; 82 nM, 5 days (Table 14)): 71 % UTC | APOE RNA (% UTC) ([4]; 205 nM, 5 days (Table 14)): 59 % UTC | APOE RNA (% UTC) ([4]; 512 nM, 5 days (Table 14)): 56 % UTC | APOE RNA (% UTC) ([4]; 1,280 nM, 5 days (Table 14)): 29 % UTC | APOE RNA (% UTC) ([4]; 3,200 nM, 5 days (Table 14)): 21 % UTC | APOE RNA (% UTC) ([4]; 8,000 nM, 5 days (Table 14)): 22 % UTC | APOE RNA (% UTC) ([4]; 20,000 nM, 5 days (Table 14)): 10 % UTC | IC50 ([4]; 5 days (Table 14)): 520 nM | APOE RNA (% control) Cortex [5]: 37 % control | APOE RNA (% control) Spinal Cord [5]: 28 % control | APOE RNA (% control) Cortex [6]: 39 % control | APOE RNA (% control) Spinal Cord [6]: 38 % control
